Values of other authors in US20160347782A1, “4-methylcatechol Derivatives and Uses Thereof” (THANARES GMBH, priority 2011, published 2016).

Assays:
liver cells = liver cells in vitro; in the μmol range
[1] = test system: normal human epidermal melanocytes

SMILES	Inhibition of hepatocellular cholesterol synthesis (liver cells)	Proliferation of melanoma cells (melanoma cells)	Growth of normal human epidermal melanocytes [1]
Cc1ccc(O)c(O)c1 [Example 4-MC, 4-Methylcatechol]	inhibits	inhibits	without impairing
O=c1c(O)c(-c2ccc(O)c(O)c2)oc2cc(O)cc(O)c12 [quercetin]	inhibits	–	–
